Data: ChEMBL document CHEMBL1201862, “PubChem BioAssay data set” (2004)
Calls of active or inactive are those of the source. Rule as the data show it, for most assays here: actives have a measured EC50 and inactives only a lower limit.

Assays:
[1] = viability of uninfected HEp-2 cells – cell-based, HTS, cytotoxicity control for RSV inhibitor project, dose response (AID 2410); format: functional; conditions: human respiratory syncytial virus
H4 = assay: Luminescence Cell-Based Dose Response HTS to Identify Activators of 5'UTR Stem-Loop Driven Prion Protein mRNA Translation in H4 Neuroglioblastoma Cells. [Related pubchem assays: 1829 (Project Summary), 1814 (Primary HTS)]; format: functional; conditions: Homo sapiens
[2] = Luminescence Cell-Based Dose Confirmation HTS to Identify Activators of 5'UTR Stem-Loop Driven Alpha-Synuclein mRNA Translation in H4 Neuroglioblastoma Cells. [Related pubchem assays: 1829 (Project Summary), 1814 (Primary HTS)]; format: functional
[3] = Luminescence Cell-Based Dose Response HTS to Identify Activators of Luciferase Translation or Activity in H4 […] Cells. [Related pubchem assays: 1829 (Project Summary), 1814 (Primary HTS)]; format: functional
[4] = loss of viability in HepG2 cells – cell-based, CellTiter-Glo, cherry-picked, cytotoxicity control for Shn3 inhibitor project, dose response (AID 624134); format: functional
[5] = reduction of Shn3 3'UTR-driven luciferase in osteoblasts – cell-based, Clone20 osteoblasts, firefly luciferase, cherry-picked, dose response (AID 624132); format: functional;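 also: firefly luciferase luminescence from reporter carrying the Shn3 3'UTR in osteoblasts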
[6] = non-specific 3'UTR reporter inhibition in Clone20-Shn3RL – cell-based, Renilla luciferase, cherry-picked, counter-screen for Shn3 inhibitor project, dose response (AID 624133); format: functional
cells [7] = format: functional, cell-based
cells [8] = format: functional, cell-based; remark: listed apart in the source
Paired box protein Pax-8 = Paired box protein Pax-8 (Homo sapiens, UniProt Q06710); assay: PAX8 transcriptional activity inhibition in RMG-I – RMG-I cells, luciferase, cherry-pick, dose response (AID 687027); format: functional, cell-based;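 also: luciferase reporter driven by Pax8 target thyroperoxidase promoter measured by SteadyGlo luminescence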
Paired box protein Pax-8, sequence (Q06710 whole entry): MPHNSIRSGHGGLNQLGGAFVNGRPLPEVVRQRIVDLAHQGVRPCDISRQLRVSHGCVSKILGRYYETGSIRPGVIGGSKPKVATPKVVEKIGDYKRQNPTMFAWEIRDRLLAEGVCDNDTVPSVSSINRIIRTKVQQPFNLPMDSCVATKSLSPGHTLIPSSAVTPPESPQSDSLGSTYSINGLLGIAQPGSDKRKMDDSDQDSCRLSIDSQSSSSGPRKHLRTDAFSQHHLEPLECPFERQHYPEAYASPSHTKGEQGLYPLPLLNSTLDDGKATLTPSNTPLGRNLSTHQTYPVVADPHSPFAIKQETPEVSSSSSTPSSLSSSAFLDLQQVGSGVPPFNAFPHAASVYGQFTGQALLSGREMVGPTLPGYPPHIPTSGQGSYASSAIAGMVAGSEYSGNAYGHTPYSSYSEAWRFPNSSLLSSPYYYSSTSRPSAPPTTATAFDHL

INS1 = assay: INS-1E survival protection against cytokine death – cell-based, luminescence, retest, dose response (AID 449756); format: functional; conditions: Rattus norvegicus;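 also: cell death triggered by IL-1 beta plus TNF-alpha plus IFN-gamma mixture; protective hits raise ATP signal compared with cytokine alone wells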
[9] = alpha-synuclein stem-loop luciferase translation blockers – H4 neuroglioma cells, luminescence, confirmation (AID 1988); format: functional, cell-based
[10] = luciferase reporter signal suppression in cells – H4 neuroglioma cells, luminescence, dose response (AID 1990); format: functional, cell-based
[11] = Luminescence Cell-Based Dose Response HTS to Identify Inhibitors of 5'UTR Stem-Loop Driven Prion Protein mRNA Translation in H4 Neuroglioblastoma Cells. [Related pubchem assays: 1827 (Project Summary), 1813 (Primary HTS)]; format: functional
[12] = NIH3T3 cell viability loss – ATP luminescence, mouse fibroblasts, counter-screen, dose response (AID 2010); format: functional, cell-based;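 also: cells exposed to compound for about 90 hours before reading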
[13] = Trypanosoma cruzi growth suppression in host cells – NIH3T3 host cells, beta-gal luminescence, confirmation (AID 2044); format: functional, cell-based;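 also: intracellular parasites grown in NIH/3T3 mouse fibroblasts as host cells; luminescent beta-galactosidase reporter signal from transgenic T. cruzi replicating inside host cells; inhibitors lower the luminescence signal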
Cytochrome P450 1A2 = target: T1, Cytochrome P450 1A2 (Homo sapiens, UniProt P05177);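 also: PubChem cytochrome P450 panel assay, CYP1A2 panel member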
T1 sequence (P05177 whole entry): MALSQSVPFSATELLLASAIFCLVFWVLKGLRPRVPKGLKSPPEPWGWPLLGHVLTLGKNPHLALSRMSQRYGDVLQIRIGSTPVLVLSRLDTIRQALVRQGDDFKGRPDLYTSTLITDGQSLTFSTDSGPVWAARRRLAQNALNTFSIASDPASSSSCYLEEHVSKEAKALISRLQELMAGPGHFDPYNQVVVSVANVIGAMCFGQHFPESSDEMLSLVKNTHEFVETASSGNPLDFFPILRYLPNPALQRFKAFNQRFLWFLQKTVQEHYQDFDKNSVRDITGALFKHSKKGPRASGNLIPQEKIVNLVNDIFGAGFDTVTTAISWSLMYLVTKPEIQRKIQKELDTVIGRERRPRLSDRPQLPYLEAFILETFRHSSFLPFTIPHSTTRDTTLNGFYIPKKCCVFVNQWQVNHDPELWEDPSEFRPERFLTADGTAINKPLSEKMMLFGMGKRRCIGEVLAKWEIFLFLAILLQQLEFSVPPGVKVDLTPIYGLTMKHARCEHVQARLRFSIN

[14] = Luminescence Cell-Based Dose Retest to Confirm Inhibitors of Cancer Stem Cells. [Related pubchem assays (depositor defined):AID2717, AID2721]; format: functional; conditions: Homo sapiens

## Cc1nn(C)c(Cl)c1CN1CCCC(CO)(Cc2ccccc2)C1 (configuration not stated)
[1]
  CC50: > 50 µM (active)

## CC(C)(C)c1ccc(OC(=O)N2CCOCC2)cc1
H4
  EC50: 1.3 µM (active)
[2]
  EC50: 23.7 µM (active)
[3]
  EC50: > 120 µM (not active)

## CCOc1ccc(-c2nnc(N3CCCCC3)c3ccccc23)cc1
[4]
  AC50: > 70 µM (inactive)
[5]
  AC50: 14.9 µM (active)
[6]
  AC50: 8.24 µM (active)

## CCN(CC)c1ccc(NC(=O)CSc2nc(O)c3c(C)cc(C)nc3n2)cc1
Cells [7]
  EC50: > 350 µM (not active)
Cells [8]
  EC50: > 350 µM (not active)

## CC(Sc1nnc(COc2ccc([N+](=O)[O-])cc2)n1C)C(=O)O (configuration not stated)
Cells [7]
  EC50: > 350 µM (not active)
Cells [8]
  EC50: > 350 µM (not active)

## CCOC(=O)Cc1csc(NC(=O)/C=C/c2ccc(Cl)cc2)n1
[1]
  CC50: 4.57 µM (active)

## Cc1cc(Sc2ccc([N+](=O)[O-])cn2)ccc1Br
[4]
  AC50: > 70 µM (inactive)
[6]
  AC50: 31.4 µM (active)

## Fc1cnc(N/N=C/c2ccc(-c3ccc(Br)cc3)o2)nc1N1CCOCC1
[1]
  CC50: 6.89 µM (active)

## C[C@@H]1CCCCO[C@@H](CN(C)Cc2ccc(C(F)(F)F)cc2)[C@H](C)CN([C@@H](C)CO)C(=O)c2cc(NS(=O)(=O)c3ccc(Cl)cc3)ccc2O1
Paired box protein Pax-8
  AC50: 9.89 µM (active)

## CC(=O)C(Sc1nn(C)c(=S)s1)C(=O)Nc1ccccc1 (configuration not stated)
H4
  EC50: 14.3 µM (active)
[2]
  EC50: 23.9 µM (active)
[3]
  EC50: 12.4 µM (active)

## CC(NC(=O)c1cc(COc2ccc3ncccc3c2)on1)c1ccc(F)cc1 (configuration not stated)
[4]
  AC50: 2.86 µM (active)
[5]
  AC50: 2.28 µM (active)
[6]
  AC50: 2.2 µM (active)
INS1
  AC50: 4.52 µM (active)

## Cc1cccc2sc(N3CCN(C(=O)C4COc5ccccc5O4)CC3)nc12 (configuration not stated)
[1]
  CC50: 25.8 µM (active)

## C(=N\N1CCN(C(c2ccccc2)c2ccccc2)CC1)/c1ccc2c(c1)OCO2
[9]
  EC50: > 120 µM (not active)
[10]
  EC50: > 120 µM (not active)
[11]
  EC50: 0.672 µM (active)

## O=C(COC(=O)/C(=C/c1cccs1)c1cccs1)NC(c1ccccc1)c1ccccc1
Paired box protein Pax-8
  AC50: 8.36 µM (active)

## Cn1nc(C(F)(F)F)cc1C(=O)NC1CCCCCC1
Cells [7]
  EC50: > 350 µM (not active)
Cells [8]
  EC50: > 350 µM (not active)

## CNc1nc(N/N=C/c2cc3c(cc2[N+](=O)[O-])OCO3)nc(Nc2ccccc2)n1
[9]
  EC50: 12.7 µM (active)
[12]
  EC50: > 60 µM (inconclusive)
[10]
  EC50: 9.21 µM (active)
[11]
  EC50: 9.97 µM (active)
[13]
  EC50: 2.42 µM (active)
INS1
  AC50: 13.2 µM (active)

## COC(=O)[C@@]12CCCCN1[C@H](c1ccc(-c3ccc(OC)cc3)cc1)[C@@H]1C(=O)N(C)C(=O)[C@@H]12
[1]
  CC50: 17.7 µM (active)

## COc1ccc(-c2nc(-c3ccc(NC(=O)c4ccncc4)cc3)no2)cc1OC
[4]
  AC50: 4.96 µM (active)
[5]
  AC50: 2.36 µM (active)
[6]
  AC50: 3.85 µM (active)

## COc1cccc(Cn2nnc3c(O)nc(C4CCCN(C(=O)c5ccccc5Cl)C4)nc32)c1 (configuration not stated)
Cytochrome P450 1A2
  AC50: 25.1 µM (inconclusive)
[9]
  EC50: > 120 µM (not active)
[10]
  EC50: > 120 µM (not active)
[11]
  EC50: > 120 µM (not active)

## O=C1N/C(=C/c2cccs2)C(=O)N1Cc1ccc(Br)cc1
Cells [7]
  EC50: > 350 µM (not active)
Cells [8]
  EC50: > 350 µM (not active)

## Cc1ccc(S(=O)(=O)N(C)C[C@H]2Oc3ccc(NC(=O)Nc4ccc(C(F)(F)F)cc4)cc3CC(=O)N([C@H](C)CO)C[C@@H]2C)cc1
Paired box protein Pax-8
  AC50: 7.34 µM (active)

## O=S(=O)(c1ccc(Cl)cc1)N1c2ccccc2Oc2nc3ccccc3nc21
H4
  EC50: > 120 µM (not active)
[2]
  EC50: > 120 µM (not active)
[3]
  EC50: > 120 µM (not active)

## O=C(COC(=O)Cc1ccc(S(=O)(=O)N2CCCCC2)s1)Nc1ccc2c(c1)OCO2
Cells [7]
  EC50: > 350 µM (not active)
Cells [8]
  EC50: > 350 µM (not active)

## COc1ccc(-c2csc(NC(=S)NC(=O)/C=C/c3ccco3)n2)cc1Br
[9]
  EC50: 9.94 µM (inconclusive)
[14]
  AC50: 0.47 µM (active)
[10]
  EC50: > 120 µM (not active)
[11]
  EC50: > 120 µM (not active)

## CCCCNc1nc2c(c(=O)n(C)c(=O)n2C)n1Cc1cccc(OC)c1
[4]
  AC50: 3.87 µM (active)
[5]
  AC50: 0.284 µM (active)
[6]
  AC50: 1.13 µM (active)

## Cc1cc(N2CCCC2)ccc1/C=C1\NC(=S)N(C)C1=O
H4
  EC50: 35.5 µM (active)
[2]
  EC50: 22.1 µM (active)
[3]
  EC50: 20 µM (active)

## c1ccc(C2=Nc3ccccc3SC2c2nc3ccccc3[nH]2)cc1 (configuration not stated)
H4
  EC50: > 120 µM (not active)
[2]
  EC50: 0.47 µM (active)
[3]
  EC50: 24.1 µM (active)

## COC(=O)CSc1nc2ccccn2c(=O)c1C=O
H4
  EC50: > 120 µM (inconclusive)
[2]
  EC50: 28.5 µM (active)
[3]
  EC50: 18.5 µM (active)

## c1ccc(-c2ccc(-c3csnn3)cc2)cc1
H4
  EC50: 27.5 µM (active)
[2]
  EC50: 0.186 µM (active)
[3]
  EC50: 0.326 µM (active)

## Cc1nn(Cc2ccccc2Cl)c2sc(C(=O)NC(C)(C)C)cc12
[1]
  CC50: > 50 µM (active)

## Cn1c(SCc2ccc(F)cc2Cl)nc2ccccc2c1=O
[4]
  AC50: 8.38 µM (active)
[5]
  AC50: 8.65 µM (active)
[6]
  AC50: 3.09 µM (active)

## O=C(c1ccc(-c2ccc(Cl)cc2)o1)N1CCN(c2ccc([N+](=O)[O-])cc2Cl)CC1
[1]
  CC50: 9.46 µM (active)
INS1
  AC50: 3.58 µM (active)

## Cc1c(C(=O)c2cccc3ccccc23)c2cccc3c2n1[C@H](CN1CCOCC1)CO3
[14]
  AC50: 3.47 µM (active)
[12]
  EC50: 55.9 µM (active)
Paired box protein Pax-8
  AC50: 8.77 µM (active)
[13]
  EC50: 0.887 µM (active)

## CCC(C)[C@H](NC(=O)N1CC(=O)Nc2ccccc21)C(=O)Nc1ccccc1C (some centres not stated)
H4
  EC50: > 120 µM (not active)
[2]
  EC50: > 120 µM (not active)
[3]
  EC50: 27.5 µM (active)

## O=C(NS(=O)(=O)c1ccc2c(c1)OCCO2)c1ccccc1
Cells [7]
  EC50: > 350 µM (not active)
Cells [8]
  EC50: > 350 µM (not active)

## CCc1ccc(CNCc2ccc(OCC(O)CN(C)Cc3ccccc3)cc2)nc1 (configuration not stated)
[4]
  AC50: 25 µM (active)
[5]
  AC50: 4.43 µM (active)
[6]
  AC50: 14.2 µM (active)

## Cc1noc(C)c1COC(=O)c1ccc(-c2nc3ccccc3s2)s1
H4
  EC50: 13 µM (active)
[2]
  EC50: 0.414 µM (active)
[3]
  EC50: 0.245 µM (active)

## COc1cc(C)ccc1OCCOc1ccccc1Cl
H4
  EC50: 18.6 µM (active)
[2]
  EC50: 32.5 µM (active)
[3]
  EC50: 87.3 µM (active)

## O=C(CN1CCCC1)Nc1nc(-c2ccc3c(c2)CCN3C(=O)c2ccccc2F)cs1
H4
  EC50: 16.7 µM (inconclusive)
[2]
  EC50: 12.9 µM (active)
[3]
  EC50: 24.4 µM (active)

## CCOC(=O)C1CCN(C(=O)C2CCCN(c3ncnc4c3nc3n4CCCCC3)C2)CC1 (configuration not stated)
Cells [7]
  EC50: > 350 µM (not active)
Cells [8]
  EC50: > 350 µM (not active)

## CN(C#N)c1nccc(-c2cccs2)n1
[1]
  CC50: 23.8 µM (active)

## CCn1nc(C)c(NC(=O)/C=C/c2ccc(OC)c(COc3ccc(Br)cc3)c2)c1C
[9]
  EC50: 13.4 µM (active)
[12]
  EC50: > 60 µM (not active)
[1]
  CC50: 31.6 µM (active)
[11]
  EC50: 23.7 µM (active)
[13]
  EC50: 2.52 µM (active)

## Cc1oc(=O)c(NC(=O)c2ccc(Cl)cc2)cc1C(=O)c1ccccc1
[4]
  AC50: > 70 µM (inactive)
[5]
  AC50: 32.1 µM (active)

## CC(=O)Nc1c([N+](=O)[O-])cc(C)c(Cl)c1[N+](=O)[O-]
Cells [7]
  EC50: > 350 µM (not active)
Cells [8]
  EC50: > 350 µM (not active)

## O=C(NCCc1ccccc1)C1CCN(S(=O)(=O)c2ccc(-n3cnnn3)cc2)CC1
Cells [7]
  EC50: > 350 µM (not active)
Cells [8]
  EC50: > 350 µM (not active)

## O=C(NCCc1csc(-c2cccc(F)c2)n1)c1ccco1
Cells [7]
  EC50: > 350 µM (not active)
Cells [8]
  EC50: > 350 µM (not active)

## Cc1ccc(OCc2nnc(SCC(=O)Nc3cccc4ccccc34)n2-c2ccccc2)cc1
[9]
  EC50: > 120 µM (not active)
[10]
  EC50: > 120 µM (not active)
[11]
  EC50: > 120 µM (not active)
